Laboratory results as given in patent publication US20050101655A1, “Migraine treatments including isovaleramide compounds and serotonin agonists” (priority 2003, published 2005).

Legend:
chronic spinalized rats [1] = assay: polysynaptic flexor-reflex responses (EMG) in chronic spinalized rats; assay type: in vivo; conditions: for total reduction of the flexor reflex (total area under the curve): two-hour measurement period, several doses, vs vehicle
Description: (§1) Assessment of hyperreflexia, pain, and muscle tone in chronic spinally transected rats was conducted using male albino Holtzman-derived rats (available from Harlan Sprague-Dawley Laboratories) weighing 270-530 grams as subjects. The rats were housed independently and had continuous access to food and water throughout the experiments. All procedures were reviewed and approved by the Institutional Animal Care and Use Committee. Animals were anesthetized using a mixture of isoflurane and oxygen at a flow rate of 4 liters/minute.
(§2) The rats were placed in a stereotaxic frame and anesthesia was maintained. An incision was made so that the paraspinal muscles could be retracted and a laminectomy performed between T6-T9. A one- to two-millimeter portion of the spinal cord was removed by evacuation and replaced with gel foam to reduce bleeding, after which the incision was closed in layers.
Following the transection, rats were placed in a room in which the ambient temperature was raised to about 80° F. with a space heater to maintain body temperature. On the following morning post-surgery, the hindquarters of the spinalized rats were bathed and their urine expressed manually by applying pressure to their bladders. Experiments were conducted between 21 and 28 days after surgery. For the first two weeks post-surgery, 0.25 ml of the antibiotic Sulfatrim Pediatric Suspension was orally administered to the rats to prevent bladder infection. […]
With reference to FIG. 3, polysynaptic flexor-reflex responses, elicited by stimuli that activate high-threshold afferents, were recorded as EMG activity from the ipsilateral hamstring muscle. […] The flexor reflex was recorded, in both the pre-drug and the post-drug periods, every 30 minutes once a stable baseline response was achieved. […] The responses were determined in spinalized rats by observing the flexor-reflex response before treatment and at each of 30, 60, 90, and 120 minutes following administration of isovaleramide (300 mg/kg p.o.), baclofen (10 mg/kg s.c.) and vehicle (water, 12 ml/kg p.o.), respectively. […]

[2] = oral absorption / bioavailability of isovaleramide; conditions: in vivo
chronic spinalized rats [3] = assay: observational scoring of hyperreflexia elicited by an innocuous stimulus in chronic spinalized rats; assay type: in vivo; conditions: 300 mg/kg i.p.
Description: as §1, §2
Following the transection, rats were placed in a room in which the ambient temperature was raised to about 80° F. with a space heater to maintain body temperature. On the following morning post-surgery, the hindquarters of the spinalized rats were bathed and their urine expressed manually by applying pressure to their bladders. Experiments were conducted between 21 and 28 days after surgery. For the first two weeks post-surgery, 0.25 ml of the antibiotic Sulfatrim Pediatric Suspension was orally administered to the rats to prevent bladder infection. […] Within approximately two weeks, all animals regained bladder control and were no longer given antibiotic treatment. […]
Initial assessment of hyperreflexia was performed by the subjective scoring method of rating the resulting hyperreflexia response elicited with an innocuous stimulus, such as a metal probe. […] The response was evaluated for each of four trials using a scale ranging from zero (no response in all four trials) to four (a maximum, tonic-clonic reaction elicited in all four trials). […] The raw or normalized scores were analyzed with a one-way repeated measures ANOVA. […]

mice = assay: hot plate test in mice (foot licking latency); assay type: in vivo; conditions: 600 orally, 60 minutes after administration, hot plate 54° C., compared to vehicle
migraine symptoms = conditions: reported; cited from earlier work

| Compound | total reduction of the flexor reflex (total area under the curve) (chronic spinalized rats [1]) | bioavailability [2] | overt behavioral toxicity or motor impairment (chronic spinalized rats [3]; chronic spinalized rats) | reduction of hyperreflexia scores (chronic spinalized rats [3]; 15, 30, 60 and 120 minutes post-administration) | hyperreflexia scores by the next day (chronic spinalized rats [3]; 1440 minutes (24 hours)) | magnitude of the flexor-reflex responses (chronic spinalized rats [1]; 300 mg/kg p.o., 30, 60, 90 and 120 minutes, compared with baclofen 10 mg/kg s.c.) | foot licking latency (mice) | patients with relief of the migraine symptoms (migraine symptoms) |
| --- | --- | --- | --- | --- | --- | --- | --- | --- |
| NCC(CC(=O)O)c1ccc(Cl)cc1 (stereo not drawn) [baclofen, reference compound] | dose-dependent reduction of the flexor reflex |  |  |  |  |  |  |  |
| CC(C)CC(N)=O [isovaleramide, Isovaleramide] | dose-dependent reduction of the flexor reflex | ~100% | No overt behavioral toxicity or motor impairment | 45-65% | essentially returned to baseline values | reduce the magnitude of the flexor-reflex responses | increased foot licking latency |  |
| CNS(=O)(=O)Cc1ccc2[nH]cc(CCN(C)C)c2c1 [sumatriptan] |  |  |  |  |  |  |  | approximately 40% |
